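All cell lines were grown in 96-well plates and treated with compound for 48 hours. The concentration for 50% growth inhibition is given as GI50. TGI denotes the concentration required for complete inhibition of growth.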
Tests used:
Test in all cases: NCI tumour cell line growth inhibition, 48 h
[1] = test system: 786-0 renal
[2] = test system: EKVX NSCLC
[3] = test system: HCT-116 colon
[4] = test system: MOLT-4 leukemia
[5] = test system: SK-MEL-5 melanoma
[6] = test system: SNB-19 CNS
[7] = test system: T-47D breast
[8] = test system: UACC-257 melanoma
[9] = test system: K-562 leukemia
[10] = test system: MDA-MB-231 breast

SMILES | TGI [1] [µM] | TGI [2] [µM] | TGI [3] [µM] | TGI [4] [µM] | TGI [5] [µM] | TGI [6] [µM] | TGI [7] [µM] | TGI [8] [µM] | GI50 [2] [µM] | TGI [9] [µM] | GI50 [10] [µM] | TGI [10] [µM] | GI50 [6] [µM] | GI50 [3] [µM] | GI50 [9] [µM] | GI50 [5] [µM] | GI50 [7] [µM] | GI50 [8] [µM]
CCCCC1=C(C(=O)N2CCOCC2)C2(OCCO2)C1=O | 40.6 | > 100 | 48.6 | > 100 | 33.2 | 43.2 | > 100 | 89.9 |  |  |  |  |  |  |  |  |  | 
CCc1c(CNc2ccc(C(=O)NC(CC(=O)O)C(=O)O)cc2)ccc2nc(N)nc(N)c12 (configuration not stated) | > 1000 | > 1000 | > 1000 | > 1000 | > 1000 | > 1000 |  |  | 558 | > 1000 | > 1000 | > 1000 | 0.188 |  |  |  |  | 
CC1=NN(c2nc(N)nc(-c3sccc3N)n2)C(C)(C)C1 | > 100 | > 100 | > 100 | > 100 | > 100 | > 100 |  | > 100 |  | > 100 |  | > 100 |  |  |  |  |  | 
O=S(=O)(O)c1ccc(N=Nc2ccc(N=Nc3ccc(/C=C/c4ccc(N=[N+]([O-])c5ccc(/C=C/c6ccc(N=Nc7ccc(N=Nc8ccc(S(=O)(=O)O)cc8)cc7)cc6S(=O)(=O)O)c(S(=O)(=O)O)c5)cc4S(=O)(=O)O)c(S(=O)(=O)O)c3)cc2)cc1 |  | > 100 | > 100 | > 100 | > 100 | > 100 |  | > 100 |  | > 100 |  |  |  |  |  |  |  | 
COc1cc(CC(C)NC(C)=O)cc(OC)c1 (configuration not stated) | > 100 |  | > 100 | > 100 | > 100 | > 100 | > 100 | > 100 |  | > 100 |  | > 100 |  |  |  |  |  | 
CCCCSc1nsc(N(C(=O)c2ccccc2)C(=O)c2ccccc2)n1 | > 100 | 77.4 | 92.6 | 59.5 | 36.6 | > 100 | > 100 | 74.9 |  | 99.7 |  |  |  |  |  |  |  | 
Cc1cc(S(=O)(=O)Nc2n[nH]c(-c3ccccn3)n2)c(S)cc1Cl | 72.7 | 92 | 55.1 | > 100 | 24.3 | 60.6 | 56.2 | > 100 |  |  |  | > 100 |  |  |  |  |  | 
COc1ccc(Nc2nc(N)c(C(=O)c3c[nH]c4ccccc34)s2)cc1 | 13.6 | > 100 | 6.58 | 20.9 | 14.4 | > 100 | > 88.3 | > 91.4 |  |  |  | > 100 |  |  |  |  |  | 
C=C1N(C=O)C(C)(C)N(O)C1(C)C | > 100 | > 100 | > 100 | 84.4 | > 100 | > 100 | > 100 | > 100 |  |  |  | > 100 |  |  |  |  |  | 
COc1ccccc1CN=C1Nc2ccncc2S(=O)(=O)N1c1ccccc1 | > 100 | > 100 | > 100 | > 100 | > 100 | > 100 |  | > 100 |  | > 100 |  |  |  |  |  |  |  | 
Cc1cc(C)nc(NS(=O)(=O)c2ccc(Nc3c4ccccc4nc4c(C(=O)N5CCN(CCOS(C)(=O)=O)CC5)cccc34)cc2)n1 |  |  | > 100 | > 100 | > 100 | > 100 |  | > 100 |  | > 100 |  |  |  |  |  |  |  | 
COc1cc(C(=O)Oc2ccc3c(c2)OCO3)cc(OC)c1OC | > 100 |  |  | > 100 | > 100 | > 100 | > 100 | > 100 |  |  |  | > 100 |  |  |  |  |  | 
N#C/C(=C/n1c(=S)[nH]c2ccc([N+](=O)[O-])cc21)C(N)=O | > 100 | > 100 | > 100 | > 100 | > 100 | > 100 |  | > 100 |  |  |  | > 100 |  |  |  |  |  | 
CSC(SC)=C(C(=O)O)P(=O)(O)O | > 100 | > 100 | > 100 | > 100 | > 100 | > 100 | > 100 | > 100 |  |  |  | > 100 |  |  |  |  |  | 
S=C(N/N=C\C(=N/NC(=S)N1CCCCC1)c1ccccc1)N1CCCCC1 | 3.74 | 3.31 | 6.53 |  | 3.32 | 3.84 | 6.72 | 5.01 |  | > 100 |  |  |  |  |  |  |  | 
COc1cc(S(=O)(=O)Nc2ccc(C(=O)/C=C/c3ccc(O)cc3)cc2)ccc1F |  | > 100 | > 100 |  | > 100 | > 100 | > 100 | > 100 | 80.5 | > 100 | 0.0267 | 9.12 | > 100 | > 100 | > 100 | > 100 | > 100 | > 100

Reference: PubChem BioAssay (NCI)
